# pIC50: −log10 of the molar value. Several values for one entry are separate records, joined by “and”; a condition that tells them apart may be missing. Equal entries are not always repeated. Where two headings read alike, the source gives them in different places.
# How the values were obtained:
# adult H. polygyrus = assay type: cell-based, Heligmosomoides polygyrus; details: 10 µM, 24-h exposure, aerobic
# Procedure, shortened: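 Adult worms, dissected from female NMRI mice, were exposed three per well to compounds at 10 µM in RPMI 1640 with antibiotics/amphotericin B for 24 or 72 h; DMSO (<1%) served as negative control. After hot-water (~80 °C) stimulation, motility was scored 0 (dead) to 3 (motile), and a score ≤1.5 counted as affected. Duplicates, two biological replicates.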
# [1] = molecular target: M. musculus (heart) complex I (Mus musculus, UniProt P03888+Q91WD5+Q9DC70); assay: biochemical; assay type: biochemical; design: Complex I activity, dose-response data: unit not given here
# Description: Six 8–10-week-old C57Bl/6 female mice (Charles River) were freshly dissected, and their livers and hearts collected into separate 1.5 mL microcentrifuge tubes. Organs were flash-frozen in liquid nitrogen and stored at −80 °C prior to use. The heart of a freshly slaughtered adult cow was obtained from a local abattoir (Peel Sausage Inc.), chopped into ~1-inch cubes and collected into 50 mL falcon tubes. Falcon tubes were flash-frozen in a container of dry ice and stored at −80 °C prior to use. Isolation of mitochondria from all mammalian tissue was carried out following the protocol described above. However, due to size, the initial homogenization of tissue was performed by 15 strokes in a dounce homogenizer (mouse heart) or with several 5 s pulses in small Nutribullet blender (cow heart). All mouse protocols for mouse care and dissection were reviewed and approved by the University of Toronto Animal Care Committee, in accordance with the Canadian Council on Animal Care.
# The enzymatic activities of individual ETC complexes (I-IV) were assessed spectrophotometrically in isolated mitochondria using a Varioskan LUX Multimode plate reader (ThermoFisher Scientific). Mitochondrial pellets previously isolated were thawed on ice and resuspended in ice-cold isolation buffer (250 mM sucrose, 10 mM Tris (pH 7.5), 1 mM EDTA). The BCA assay (Walker, 1994) was used to quantify the protein concentration of mitochondria suspensions; solutions were diluted to a concentration of 0.2 mg/mL for use in all assays. For the complex I assay, mitochondria pellets were freeze-thawed on ice three times to increase enzyme accessibility. […] 20 μL mitochondria suspension was then added/mixed with a pipette to initiate the reaction. Immediately following the addition of mitochondria, absorbance was measured (complex I and II: 600 nm; complex III and IV: 550 nm) in 30 s intervals over 15 min. Enzymatic activity was determined in each reaction by plotting absorbance versus time and calculating the slope of the curve during the initial linear phase of the reaction. […] Percent activity of each complex was calculated by dividing the enzyme-specific activity of each well by the enzyme-specific activity of the corresponding solvent controls.
# Chemical solutions were prepared in complex I assay buffer composed of 25 mM KPi buffer (pH 7.5), 3 mg/mL bovine serum albumin (BSA), 80 μM NADH, 60 μM decylubiquinone, 160 μM DCIP, 2 μM antimycin A and 2 mM KCN.
# For preliminary screens of hit compounds, compounds were screened at 100 μM; data are the average of at least three biological replicates. The complex I and II activity assays were used for additional dose-response experiments. […] For dose responses of benzimidazole analogs, data represent the average of two biological replicates. For all other dose-responses, data represent the average of at least three biological replicates.
# [2] = M. musculus (heart) mitochondria, mean of replicates, read-out: percent (%) in vitro complex I activity relative to solvent control
# [3] = M. musculus (heart) mitochondria, single replicate, read-out: percent (%) in vitro complex I activity relative to solvent control
# [4] = M. musculus (heart) mitochondria, Mean of replicates, read-out: in vitro complex I activity relative to solvent control
# [5] = M. musculus (heart) mitochondria, single replicate, read-out: in vitro complex I activity relative to solvent control
# M. musculus (heart) complex I, sequence (Q91WD5 34-463): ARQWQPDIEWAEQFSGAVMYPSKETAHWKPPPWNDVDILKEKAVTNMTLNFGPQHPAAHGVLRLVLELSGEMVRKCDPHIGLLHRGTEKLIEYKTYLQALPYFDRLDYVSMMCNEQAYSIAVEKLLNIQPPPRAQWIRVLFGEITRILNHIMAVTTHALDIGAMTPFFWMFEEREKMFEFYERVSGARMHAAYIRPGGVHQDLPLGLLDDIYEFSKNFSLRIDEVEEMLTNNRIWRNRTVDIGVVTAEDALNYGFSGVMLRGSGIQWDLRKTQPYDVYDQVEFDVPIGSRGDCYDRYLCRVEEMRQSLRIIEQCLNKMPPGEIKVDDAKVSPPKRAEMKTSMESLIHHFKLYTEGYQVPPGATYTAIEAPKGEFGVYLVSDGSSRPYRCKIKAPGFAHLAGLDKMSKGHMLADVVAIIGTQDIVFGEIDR
# M. musculus (heart) complex I, sequence (Q9DC70 36-224): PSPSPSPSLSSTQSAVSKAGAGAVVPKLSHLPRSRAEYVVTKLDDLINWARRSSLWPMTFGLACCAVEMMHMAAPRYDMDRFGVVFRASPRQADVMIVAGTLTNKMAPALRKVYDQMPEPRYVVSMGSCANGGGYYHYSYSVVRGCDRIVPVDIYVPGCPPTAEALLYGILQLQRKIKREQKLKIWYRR
# M. musculus (heart) complex I, sequence (P03888 whole entry): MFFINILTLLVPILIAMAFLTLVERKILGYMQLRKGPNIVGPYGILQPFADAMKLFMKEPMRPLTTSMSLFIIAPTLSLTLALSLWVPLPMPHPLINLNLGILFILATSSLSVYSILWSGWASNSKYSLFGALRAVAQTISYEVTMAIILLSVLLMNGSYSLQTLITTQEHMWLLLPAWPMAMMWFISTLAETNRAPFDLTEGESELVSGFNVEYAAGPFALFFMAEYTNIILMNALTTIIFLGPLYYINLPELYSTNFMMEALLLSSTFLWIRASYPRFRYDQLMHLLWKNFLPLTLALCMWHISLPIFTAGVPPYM
compound,measurement,setting,value
CC(C)Cc1ccc(C(C)c2nc3ccccc3n2C)cc1 (stereo not drawn) [NPD8790],effect on adult H. polygyrus viability,adult H. polygyrus,potent effects
same,remaining activity at 0.125 µM,[1]; [2],101%
same,remaining activity at 0.125 µM,[1]; [3],99.7%
same,remaining activity at 0.313 µM,[1]; [2],97.5%
same,remaining activity at 0.313 µM,[1]; [3],97.7%
same,remaining activity at 0.625 µM,[1]; [2],100%
same,remaining activity at 0.625 µM,[1]; [3],100%
same,remaining activity at 1.5 µM,[1]; [2],100%
same,remaining activity at 1.5 µM,[1]; [3],100%
same,remaining activity at 3 µM,[1]; [2],99.1%
same,remaining activity at 3 µM,[1]; [3],100%
same,remaining activity at 15 µM,[1]; [2],78.9%
same,remaining activity at 15 µM,[1]; [3],77.5%
same,remaining activity at 37.5 µM,[1]; [2],44.3%
same,remaining activity at 37.5 µM,[1]; [3],40.4%
same,remaining activity at 75 µM,[1]; [2],24.7%
same,remaining activity at 75 µM,[1]; [3],18%
same,remaining activity at 0.06 µM,"[1]; M. musculus (heart) mitochondria, 0.06 µM, Mean of replicates, read-out: in vitro complex I activity relative to solvent control",103%
same,remaining activity at 0.13 µM,[1]; [4],101%
same,remaining activity at 0.13 µM,[1]; [5],99.7%
same,remaining activity at 0.313 µM,[1]; [4],97.5%
same,remaining activity at 0.313 µM,[1]; [5],97.7%
same,remaining activity at 0.625 µM,[1]; [4],100%
same,remaining activity at 0.625 µM,[1]; [5],100%
same,remaining activity at 1.5 µM,[1]; [4],100%
same,remaining activity at 1.5 µM,[1]; [5],100%
same,remaining activity at 3 µM,[1]; [4],99.1%
same,remaining activity at 3 µM,[1]; [5],100%
same,remaining activity at 15 µM,[1]; [4],78.9%
same,remaining activity at 15 µM,[1]; [5],77.5%
same,remaining activity at 37.5 µM,[1]; [4],44.3%
same,remaining activity at 37.5 µM,[1]; [5],40.4%
same,remaining activity at 75 µM,[1]; [4],24.7%
same,remaining activity at 75 µM,[1]; [5],18%
same,activity at 0.0001 µM,"[1]; M. musculus, Mean of replicates, read-out: Complex I activity, dose-response data",100%
same,activity at 0.0001 µM,"[1]; M. musculus, individual replicates (Rep), read-out: Complex I activity, dose-response data",100%
same,activity at 0.0005 µM,"[1]; M. musculus, dose 0.0005 µM, Mean of replicates, read-out: Complex I activity, dose-response data",103%
same,"Complex I activity, dose-response data","[1]; M. musculus, dose 0.0005 µM, individual replicates (Rep)",104.677 and 101.090 and 100.240
same,activity at 0.0005 µM,"[1]; M. musculus, dose 0.0005 µM, individual replicates (Rep), read-out: Complex I activity, dose-response data",105%
same,activity at 0.001 µM,"[1]; M. musculus, dose 0.001 µM, Mean of replicates, read-out: Complex I activity, dose-response data",103%
same,"Complex I activity, dose-response data","[1]; M. musculus, dose 0.001 µM, individual replicates (Rep)",105.312 and 100.449 and 100.153
same,activity at 0.001 µM,"[1]; M. musculus, dose 0.001 µM, individual replicates (Rep), read-out: Complex I activity, dose-response data",106%
same,activity at 0.0025 µM,"[1]; M. musculus, dose 0.0025 µM, Mean of replicates, read-out: Complex I activity, dose-response data",104%
same,"Complex I activity, dose-response data","[1]; M. musculus, dose 0.0025 µM, individual replicates (Rep)",112.270 and 101.643 and 99.207
same,activity at 0.0025 µM,"[1]; M. musculus, dose 0.0025 µM, individual replicates (Rep), read-out: Complex I activity, dose-response data",103%
same,activity at 0.005 µM,"[1]; M. musculus, dose 0.005 µM, Mean of replicates, read-out: Complex I activity, dose-response data",104%
same,"Complex I activity, dose-response data","[1]; M. musculus, dose 0.005 µM, individual replicates (Rep)",110.480 and 103.776 and 102.056
same,activity at 0.005 µM,"[1]; M. musculus, dose 0.005 µM, individual replicates (Rep), read-out: Complex I activity, dose-response data",101%
same,activity at 0.013 µM,"[1]; M. musculus, dose 0.013 µM, Mean of replicates, read-out: Complex I activity, dose-response data",104%
same,"Complex I activity, dose-response data","[1]; M. musculus, dose 0.013 µM, individual replicates (Rep)",111.361 and 104.185 and 100.073
same,activity at 0.013 µM,"[1]; M. musculus, dose 0.013 µM, individual replicates (Rep), read-out: Complex I activity, dose-response data",99.2%
same,activity at 0.025 µM,"[1]; M. musculus, dose 0.025 µM, Mean of replicates, read-out: Complex I activity, dose-response data",106%
same,"Complex I activity, dose-response data","[1]; M. musculus, dose 0.025 µM, individual replicates (Rep)",117.035 and 103.670 and 100.685
same,activity at 0.025 µM,"[1]; M. musculus, dose 0.025 µM, individual replicates (Rep), read-out: Complex I activity, dose-response data",102%
same,activity at 0.063 µM,"[1]; M. musculus, dose 0.063 µM, Mean of replicates, read-out: Complex I activity, dose-response data",103%
same,"Complex I activity, dose-response data","[1]; M. musculus, dose 0.063 µM, individual replicates (Rep)",102.752 and 117.261 and 99.301 and 94.461
same,activity at 0.125 µM,"[1]; M. musculus, dose 0.125 µM, Mean of replicates, read-out: Complex I activity, dose-response data",101%
same,"Complex I activity, dose-response data","[1]; M. musculus, dose 0.125 µM, individual replicates (Rep)",109.547 and 101.293 and 94.390
same,activity at 0.125 µM,"[1]; M. musculus, dose 0.125 µM, individual replicates (Rep), read-out: Complex I activity, dose-response data",99.7%
same,"Complex I activity, dose-response data","[1]; M. musculus, dose 0.313 µM, individual replicates (Rep)",201.293 and 194.390
same,activity at 0.313 µM,"[1]; M. musculus, dose 0.313 µM, individual replicates (Rep), read-out: Complex I activity, dose-response data",210%
same,"Complex I activity, dose-response data","[1]; M. musculus, dose 0.625 µM, individual replicates (Rep)",301.293 and 294.390
same,activity at 0.625 µM,"[1]; M. musculus, dose 0.625 µM, individual replicates (Rep), read-out: Complex I activity, dose-response data",310%
same,"Complex I activity, dose-response data","[1]; M. musculus, dose 1.5 µM, individual replicates (Rep)",401.293 and 394.390
same,activity at 1.5 µM,"[1]; M. musculus, dose 1.5 µM, individual replicates (Rep), read-out: Complex I activity, dose-response data",410%
same,activity at 3 µM,"[1]; M. musculus, dose 3 µM, Mean of replicates, read-out: Complex I activity, dose-response data",99.1%
same,"Complex I activity, dose-response data","[1]; M. musculus, dose 3 µM, individual replicates (Rep)",102.668 and 98.080 and 95.248
same,activity at 3 µM,"[1]; M. musculus, dose 3 µM, individual replicates (Rep), read-out: Complex I activity, dose-response data",100%
same,activity at 15 µM,"[1]; M. musculus, dose 15 µM, Mean of replicates, read-out: Complex I activity, dose-response data",78.9%
same,"Complex I activity, dose-response data","[1]; M. musculus, dose 15 µM, individual replicates (Rep)",87.100 and 75.283 and 75.658
same,activity at 15 µM,"[1]; M. musculus, dose 15 µM, individual replicates (Rep), read-out: Complex I activity, dose-response data",77.5%
same,activity at 37.5 µM,"[1]; M. musculus, dose 37.5 µM, Mean of replicates, read-out: Complex I activity, dose-response data",44.3%
same,"Complex I activity, dose-response data","[1]; M. musculus, dose 37.5 µM, individual replicates (Rep)",50.337 and 43.421 and 43.042
same,activity at 37.5 µM,"[1]; M. musculus, dose 37.5 µM, individual replicates (Rep), read-out: Complex I activity, dose-response data",40.4%
same,activity at 75 µM,"[1]; M. musculus, dose 75 µM, Mean of replicates, read-out: Complex I activity, dose-response data",24.7%
same,"Complex I activity, dose-response data","[1]; M. musculus, dose 75 µM, individual replicates (Rep)",29.417 and 25.967 and 25.618
same,activity at 75 µM,"[1]; M. musculus, dose 75 µM, individual replicates (Rep), read-out: Complex I activity, dose-response data",18%
same,pIC50,[1]; heart mitochondria,4.54

# Source: paper PMC11079024, “Identification of a family of species-selective complex I inhibitors as potential anthelmintics” (Nature Communications, 2024)
